In patent publication US7488759B2, “Malic acid addition salts of terbinafine” (Novartis AG, priority 2001, dated 2009):
Structures can show the parent of a compound that is named as a salt. Where two headings read alike, the source gives them in different places. Each block holds one compound with its values, some of them ahead of it.

Legend:
CYP2D6 = CYP2D6 (Homo sapiens, UniProt P10635); details: cited from earlier work
[1] = in vitro nail penetration/permeation assay (modified Franz cell); type: in vitro ADME, human; details: 72 hours, 1% solution
Method: Human cadaveric toe nails are used in a Franz cell (FIG. 1) modified to accept cadaveric human toenails by having a pair of flexible rings made of a silicone elastomer (PDMS) having good sealant properties to adequately mount hard nails, using liquid scintillation counting (LSC) (picogram limit of detection) to measure the increase in radioactivity in the acceptor compartment. Each measurement is effected in triplicate. 90 randomly selected nails are exposed for 72 hours to a solution of 100 μl of ^14C-labelled terbinafine hydrochloride or terbinafine L-(−)-hydrogen malate (form A) solution [25 μBq/ml; 1% active product; 5% 1,2-propylene glycol; 2% Cetomacrogol-1000® (polyoxyethylene-glycol-1000-monoacetylether); 25% ethanol 94%; 67% distilled water] (w/w). Each area of the nail exposed to the formulation has a 9 mm diameter (about 64 mm^2). Exposure is effected under occlusive (chamber closed to air) and non-occlusive (chamber open to air) conditions.
The radiolabelled product is detectable in the buffer-filled receptor chamber from about 8 hours of incubation. Its concentration in the receptor chamber as measured by LSC increases with incubation time and concentration of applied formulation. A total of 24 penetration chambers are used in parallel. Each formulation is measured in triplicate.

[2] = solubility in water and organic solvents; type: physicochemical; details: for solubility: 25 °C
From the text: They thus form crystals more readily than the hydrochloride or the free base. […] Polymorphs have different dissolution rates, milling behaviour and stability, e.g. in galenical forms where the pharmaceutically active compound is in solid form, such as tablets or suspensions, and they influence bioavailability. The surprising presence of polymorphism is therefore advantageous in terms of improved processability, such as with polymorph particularly stable thermodynamically, in formulations with compound in solid form, e.g. tablets or suspensions, or with polymorph having a particularly high dissolution rate or solubility, in formulations with dissolved compound, e.g. nail lacquers. The compounds of the invention are therefore better processable for e.g. large scale tablet formulation; they also have favourable penetration/permeation properties and can thus readily be formulated into topical forms, such as nail lacquers. […] Further, they are non-hygroscopic, thus providing stable formulations while minimizing the risk of intrinsic chemical breakdown.

[3] = pharmacokinetic study in Beagle dogs, oral capsules; type: in vivo; details: 7 Beagle dogs, oral capsule 62.5 mg base equivalent
Method: This appears i.a. from a pharmacokinetic study in animals involving 7 Beagle dogs weighing about 10 kg, aged about 5 years, upon oral administration of capsules prepared by mixing active terbinafine salt substance [hydrochloride or L-(−)-hydrogen malate; 62.5 mg base equivalent per capsule] with lactose in a ratio of 1:1 w/w and filling into appropriate hard gelatine capsules (particle size distribution similar for both salts).

[4] = design: AUC increase factor in steady state vs single dose: unit not given beside the values; details: cited from earlier work
[5] = ethanol, organic solvent or mixture, read-out: solubility in ethanol
[6] = Beagle, dog, plasma, po, 62.5 mg
[7] = human subjects, single 250 mg terbinafine dose
[8] = steady state after several days dosing

CYP2D6, sequence (P10635 whole entry): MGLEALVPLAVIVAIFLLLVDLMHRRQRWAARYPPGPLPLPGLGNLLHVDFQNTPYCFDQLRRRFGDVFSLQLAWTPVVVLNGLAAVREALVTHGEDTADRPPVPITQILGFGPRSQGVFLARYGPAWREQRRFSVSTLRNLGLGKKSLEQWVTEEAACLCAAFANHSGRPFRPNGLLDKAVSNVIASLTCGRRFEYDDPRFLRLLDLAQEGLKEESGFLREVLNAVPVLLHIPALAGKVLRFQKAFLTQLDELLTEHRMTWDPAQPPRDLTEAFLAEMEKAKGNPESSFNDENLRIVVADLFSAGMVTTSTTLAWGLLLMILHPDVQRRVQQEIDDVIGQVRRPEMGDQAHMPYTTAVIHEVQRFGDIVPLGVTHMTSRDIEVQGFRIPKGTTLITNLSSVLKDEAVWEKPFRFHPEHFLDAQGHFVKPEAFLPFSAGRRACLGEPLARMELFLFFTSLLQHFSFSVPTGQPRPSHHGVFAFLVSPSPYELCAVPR

SMILES: CN(C/C=C/C#CC(C)(C)C)Cc1cccc2ccccc12 [Terbinafine, (E)-N-methyl-6,6-dimethyl-N-(1-naphthylmethyl)hept-2-en-4-inyl-1-amine]
inhibition of CYP2D6 (CYP2D6): potent inhibitor

SMILES: CN(C/C=C/C#CC(C)(C)C)Cc1cccc2ccccc12 [Example 1, Terbinafine L-(−)-hydrogen malate (polymorph form A)]
amount recovered in receptor chamber (permeation) ([1]; non-occlusive conditions): ~41 ng | amount recovered in receptor chamber (permeation) ([1]; occlusive conditions): about 63 ng | solubility in ethyl acetate ([2]; 25°): > 30 mg/mL | solubility in water ([2]; 25°): ~12 mg/mL | solubility in ethanol ([2]; 25°, listed as Example 3): > 50 mg/mL | solubility ([2]; aqueous with cosolvent or surfactant or cyclodextrin, solubility, read-out: solubility in ethane/water 2:8 v/v): > 30 mg/mL | solubility [2, 5]: > 30 mg/mL

SMILES: CN(C/C=C/C#CC(C)(C)C)Cc1cccc2ccccc12 [Example 2, Terbinafine L-(−)-hydrogen malate (polymorph form B)]
solubility in water ([2]; 25°): 15 mg/mL

SMILES: CN(C/C=C/C#CC(C)(C)C)Cc1cccc2ccccc12 [L-(−)-hydrogen malate, terbinafine L-(−)-hydrogen malate]
solubility in ethyl acetate ([2]; 25°): > 30 mg/mL | solubility in water ([2]; 25°): 12 to 15 mg/mL | coefficient of variation (CV) of AUC, inter-animal variability [3]: 30% | AUC [3, 6]: 392 ng·h/mL | Cmax [3, 6]: 134 ng/mL

Second part, led by results:

solubility in water ([2]; 25°): ~7 mg/mL
SMILES: CN(C/C=C/C#CC(C)(C)C)Cc1cccc2ccccc12 [Example 4, Terbinafine D-(+)-hydrogen malate]

coefficient of variation (CV) of AUC, inter-animal variability ([3]; hydrochloride): 39% | mean AUC ([3]; hydrochloride): 348 ng·h/mL | mean Cmax ([3]; hydrochloride): 146 ng/mL
SMILES: CN(C/C=C/C#CC(C)(C)C)Cc1cccc2ccccc12 [terbinafine hydrochloride]
increase in AUC with a fat-rich meal ([4]; administered with a fat-rich meal): 42% | Peak drug plasma concentration (Cmax) [4, 7]: about 1.3 μg/ml | area under the curve over 24 hours (AUC) [4, 7]: about 4.76 μg·hour/ml | effective half-life ([4]; human, in vivo): about 36 hours | reduction of clearance ([4]; patients with renal impairment (creatinine clearance ≤50 ml/min) or hepatic cirrhosis): approximately 50% | AUC increase factor in steady state vs single dose [4, 8]: 2.5 | Cmax higher in steady state vs single dose [4, 8]: 25%

solubility [2, 5]: > 50 mg/mL | solubility ([2]; ethyl acetate, organic solvent or mixture, read-out: solubility in ethyl acetate): ~17 mg/mL | solubility ([2]; water, water, read-out: solubility in water): ~7 mg/mL
SMILES: CN(C/C=C/C#CC(C)(C)C)Cc1cccc2ccccc12 (racemic) [Example 5, Terbinafine DL-(±)-hydrogen malate]
